Laboratory results from ChEMBL document CHEMBL3137667, “[Drug-induced liver injury; fourteenth updated edition of the bibliographic database of liver injuries and related drugs]” (Gastroenterol Clin Biol, 2004).

Legend:
[1] = human, serum, 4383 h
[2] = Times to onset, minimal and maximal, observed in the indexed observations. [column 'DELAI' in source]; details: human
[3] = human
[4] = Highest frequency of acute liver toxicity observed during clinical trials, expressed as a percentage. [column '% AIGUE' in source]; details: human
[5] = human; remark: listed apart in the source
[6] = Highest frequency of moderate liver toxicity observed during clinical trials, expressed as a percentage. [column '% BIOL' in source]; details: human
[7] = human, serum
[8] = human; remark: listed apart in the source
[9] = human; remark: listed apart in the source
[10] = human; remark: listed apart in the source
[11] = human; remark: listed apart in the source
[12] = human; remark: listed apart in the source
[13] = human; remark: listed apart in the source
[14] = human; remark: listed apart in the source
[15] = human, serum; remark: listed apart in the source
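Wherever Hepatotoxicity (association with vascular disease) is given: count of indexed literature references reporting vascular liver injury in humans, e.g. peliosis hepatitis, hepatic veno-occlusive disease or Budd-Chiari syndrome.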
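Wherever Hepatotoxicity (benign tumour) is given: value is a count of indexed literature references citing a benign tumour confirmed by histopathology.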
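Wherever Hepatotoxicity (choleostasis) is given: human cholestatic liver injury, shown by histopathology or by peak ALT or AST elevation over alkaline phosphatase ratio below 2, value counts indexed literature reports.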
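Wherever Hepatotoxicity (chronic liver disease) is given: chronic liver injury confirmed by histopathology or persistently raised serum aminotransferase activity beyond 6 months, value given as the count of indexed literature references.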
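Wherever Hepatotoxicity (cirrhosis) is given: value is a count of indexed literature references reporting cirrhosis confirmed by histopathology.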
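Wherever Hepatotoxicity (cytolytic) is given: human cytolytic liver injury, shown by histopathology or by a ratio above 5 of peak ALT or AST elevation to alkaline phosphatase elevation, value counts indexed references.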
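Wherever Hepatotoxicity (granulomatous hepatitis) is given: value is a count of indexed literature references reporting granulomatous liver disease confirmed by histopathology.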
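Wherever Hepatotoxicity (malignant tumour) is given: malignant tumour confirmed by histopathology, value gives the count of indexed literature references reporting it.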
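Wherever Hepatotoxicity (severe hepatitis) is given: human clinical data: severe hepatitis, meaning potentially life-threatening liver failure or clinically observed cases, the value counts how many indexed literature references report it.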
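Wherever Hepatotoxicity (steatosis) is given: steatosis confirmed by histopathology, value is the count of indexed references.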

Row | SMILES | Hepatotoxicity (chronic liver disease) [1] | Hepatotoxicity (time to onset) [2] | Hepatotoxicity (association with vascular disease) [3] | Hepatotoxicity (acute) [4] [%] | Hepatotoxicity (granulomatous hepatitis) [5] | Hepatotoxicity (moderate) [6] [%] | Hepatotoxicity (moderate) [7] | Hepatotoxicity (cirrhosis) [8] | Hepatotoxicity (choleostasis) [9] | Hepatotoxicity (benign tumour) [10] | Hepatotoxicity (malignant tumour) [11] | Hepatotoxicity (severe hepatitis) [12] | Hepatotoxicity (steatosis) [13] | Hepatotoxicity (cytolytic) [14] | Hepatotoxicity (acute) [15] | Hepatotoxicity (acute) ([4]; Liver) [%] | Hepatotoxicity (moderate) ([6]; Liver) [%] | Hepatotoxicity (severe hepatitis) ([12]; Liver)
1 | NN [HYDRAZINE] | 0 | 3.5 months | 0 | 0 | 0 | 0 | 0 | 0 | 0 | 0 | 0 | 1 | 0 | 1 | 1 | – | – | –
2 | C[C@]12CCC(=O)C=C1CC[C@@H]1[C@@H]2[C@@H](O)C[C@@]2(C)[C@H]1CC[C@]2(O)C(=O)CO [HYDROCORTISONE] | 0 | 2 months | 0 | 0 | 0 | 25 | 1 | 0 | 0 | 0 | 0 | 1 | 10 | 0 | 0 | – | – | –
3 | CCN(CCO)CCCC(C)Nc1ccnc2cc(Cl)ccc12 (stereo not given) [HYDROXYCHLOROQUINE] | 0 | 1 year | 0 | 5.3 | 0 | 11.1 | 1 | 0 | 1 | 0 | 0 | 1 | 0 | 1 | 2 | – | – | –
4 | CC(C)Cc1ccc(CC(=O)O)cc1 [IBUFENAC] | 0 | 4 months | 0 | 5 | 0 | 40 | 2 | 0 | 1 | 0 | 0 | 1 | 0 | 3 | 3 | – | – | –
5 | O=c1[nH]c(=O)n([C@H]2C[C@H](O)[C@@H](CO)O2)cc1I [IDOXURIDINE] | 0 | 1 week - 2 weeks | 0 | 0 | 0 | 3.6 | 3 | 0 | 1 | 0 | 0 | 0 | 0 | 0 | 1 | – | – | –
6 | CCN(CC)CCn1c(-c2ccccc2)noc1=N [IMOLAMINE] | 1 | 2 months | 0 | 0 | 0 | 0 | 0 | 0 | 0 | 0 | 0 | 0 | 0 | 0 | 0 | – | – | –
7 | CC1Cc2ccccc2N1NC(=O)c1ccc(Cl)c(S(N)(=O)=O)c1 (stereo not given) [INDAPAMIDE] | 0 | 6 months - 5 years | 0 | – | 0 | – | 1 | 0 | 1 | 0 | 0 | – | 0 | 3 | 4 | 0 | 0 | 1
8 | C[C@H](O)C(=O)Nc1c(I)c(C(=O)NC(CO)CO)c(I)c(C(=O)NC(CO)CO)c1I [IOPAMIDOL] | 0 | 0.5 h | 0 | 0 | 0 | 0 | 0 | 0 | 0 | 0 | 0 | 1 | 0 | 1 | 1 | – | – | –
9 | CCC(Cc1c(I)cc(I)c(N)c1I)C(=O)O (stereo not given) [IOPANOIC ACID] | 0 | 1 week | 0 | 0 | 0 | 0 | 0 | 0 | 0 | 0 | 0 | 0 | 0 | 1 | 1 | – | – | –
10 | COCC(=O)Nc1c(I)c(C(=O)NCC(O)CO)c(I)c(C(=O)N(C)CC(O)CO)c1I (stereo not given) [IOPROMIDE] | 0 | < 24 h | 0 | 0 | 0 | 0 | 0 | 0 | 0 | 0 | 0 | 0 | 0 | 1 | 1 | – | – | –
11 | Cc1cc(C(=O)NNCc2ccccc2)no1 [ISOCARBOXAZID] | 0 | 1 month - 4 months | 0 | 0 | 0 | 0 | 1 | 0 | 2 | 0 | 0 | 1 | 0 | 4 | 4 | – | – | –
